# Earlier results as cited in US20160354326A1, “LOCAL ANESTHETIC SOLUTION FOR DENTAL AND/OR CONTRAST MEDIA USE” (priority 2014, published 2016).
# Conditions: dissolved in solution; sucrose standard = 1
row,Compound,sweetness perception rating (times the sweetness of sucrose in solution)
1,OC[C@@H](O)[C@@H](O)[C@H](O)[C@@H](O)CO [Sorbitol],0.6
2,OC[C@H]1O[C@@](CO)(O[C@H]2O[C@H](CO)[C@@H](O)[C@H](O)[C@H]2O)[C@@H](O)[C@@H]1O [Sucrose],1
3,O=C(CO)[C@@H](O)[C@H](O)[C@H](O)CO [fructose],1.7
